Results from PubChem BioAssay AID2060900 (Molecular Pharmacology Branch, DTP, NCI, 2025).

Test system: 521955-158-R2-J5-PDC complex spheroids, viability
Assay: Anticancer human tumor 521955-158-R2-J5-PDC patient-derived pancreatic carcinoma cell line growth inhibition [RAS]
Settings: for IC50: curve of first compound; for viability, T/C: stronger effect = lower value; active = viability on the fitted dose curve at most 10% of control; inactive = the rest
In short: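 Agents were tested in combination matrices in half-log decrements from a top concentration at or near clinical Cmax (10 microM if undetermined). Targets were multi-cell spheroids of tumour lines plus HUVEC and MSC stromal cells.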

[1] = second compound 0.000949 µM, first compound 0.0316 µM
[2] = second compound 0.000949 µM, first compound 0.1 µM
[3] = second compound 0.000949 µM, first compound 0.316 µM
[4] = second compound 0.000949 µM, first compound 1 µM
[5] = second compound 0.000949 µM, first compound 3.16 µM
[6] = second compound 0.000949 µM, first compound 10 µM
[7] = second compound 0.003 µM, first compound 0.0316 µM
[8] = second compound 0.003 µM, first compound 0.1 µM
[9] = second compound 0.003 µM, first compound 0.316 µM
[10] = second compound 0.003 µM, first compound 1 µM
[11] = second compound 0.003 µM, first compound 3.16 µM
[12] = second compound 0.003 µM, first compound 10 µM
[13] = second compound 0.00949 µM, first compound 0.0316 µM
[14] = second compound 0.00949 µM, first compound 0.1 µM
[15] = second compound 0.00949 µM, first compound 0.316 µM
[16] = second compound 0.00949 µM, first compound 1 µM
[17] = second compound 0.00949 µM, first compound 3.16 µM
[18] = second compound 0.00949 µM, first compound 10 µM
[19] = second compound 0.03 µM, first compound 0.0316 µM
[20] = second compound 0.03 µM, first compound 0.1 µM
[21] = second compound 0.03 µM, first compound 0.316 µM
[22] = second compound 0.03 µM, first compound 1 µM
[23] = second compound 0.03 µM, first compound 3.16 µM
[24] = second compound 0.03 µM, first compound 10 µM
[25] = second compound 0.0949 µM, first compound 0.0316 µM
[26] = second compound 0.0949 µM, first compound 0.1 µM
[27] = second compound 0.0949 µM, first compound 0.316 µM
[28] = second compound 0.0949 µM, first compound 1 µM
[29] = second compound 0.0949 µM, first compound 3.16 µM
[30] = second compound 0.0949 µM, first compound 10 µM
[31] = second compound 0.3 µM, first compound 0.0316 µM
[32] = second compound 0.3 µM, first compound 0.1 µM
[33] = second compound 0.3 µM, first compound 0.316 µM
[34] = second compound 0.3 µM, first compound 1 µM
[35] = second compound 0.3 µM, first compound 3.16 µM
[36] = second compound 0.3 µM, first compound 10 µM
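Also: compound exposure lasted seven days before the viability read.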
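For viability, T/C in this document: spheroids also contain HUVEC endothelial cells and mesenchymal stem cells as stroma.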

Cc1nc(N2CCC3(CC2)COC(C)C3N)c(CO)nc1Sc1ccnc(N)c1Cl (centres undefined) + CCn1c(-c2cc(N3CCN(C)CC3)cnc2C(C)OC)c2c3cc(ccc31)-c1csc(n1)CC(NC(=O)C1CC1C)C(=O)N1CCCC(N1)C(=O)OCC(C)(C)C2
inactive: viability, T/C [1] 39.5% | viability, T/C [2] 31% | viability, T/C [3] 32.7% | viability, T/C [4] 39.2% | viability, T/C [5] 36.4% | viability, T/C [6] 33.3% | viability, T/C [7] 36.2% | viability, T/C [8] 40.7% | viability, T/C [9] 35.3% | viability, T/C [10] 31.3% | viability, T/C [11] 23.8% | viability, T/C [12] 20.9% | viability, T/C [13] 27.4% | viability, T/C [14] 32.1% | viability, T/C [15] 25% | viability, T/C [16] 18.3% | viability, T/C [17] 18.7% | viability, T/C [18] 10.8% | viability, T/C [19] 15.9% | viability, T/C [20] 18.1% | viability, T/C [21] 12.8% | viability, T/C [22] 13.9% | viability, T/C [23] 11.8% | viability, T/C [24] 11.7% | viability, T/C [25] 14.3% | viability, T/C [26] 11% | viability, T/C [27] 15.1% | viability, T/C [28] 7.6% | viability, T/C [29] 11.3% | viability, T/C [30] 10.7%
active: viability, T/C [31] 9.07% | viability, T/C [32] 8.16% | viability, T/C [33] 8.08% | viability, T/C [34] 6.34% | viability, T/C [35] 7.5% | viability, T/C [36] 9.18%
< 31.6 nM: IC50 (second compound 0.000949 µM) | IC50 (second compound 0.003 µM) | IC50 (second compound 0.00949 µM) | IC50 (second compound 0.03 µM) | IC50 (second compound 0.0949 µM) | IC50 (second compound 0.3 µM)

CC(=O)OC12COC1CC(O)C1(C)C(=O)C(O)C3=C(C)C(OC(=O)C(O)C(NC(=O)OC(C)(C)C)c4ccccc4)CC(O)(C(OC(=O)c4ccccc4)C21)C3(C)C (centres undefined) + CCn1c(-c2cccnc2C(C)OC)c2c3cc(ccc31)N1CCOC(CC(NC(=O)C(C(C)C)N(C)C(=O)C3(F)CCN(C(=O)C#CC(C)(C)N(C)C)CC3)C(=O)N3CCCC(N3)C(=O)OCC(C)(C)C2)C1
< 31.6 nM: IC50 (second compound 0.000949 µM) | IC50 (second compound 0.003 µM) | IC50 (second compound 0.00949 µM) | IC50 (second compound 0.03 µM) | IC50 (second compound 0.0949 µM) | IC50 (second compound 0.3 µM)
inactive: viability, T/C [1] 47.5% | viability, T/C [2] 23% | viability, T/C [3] 24.6% | viability, T/C [4] 22% | viability, T/C [5] 28% | viability, T/C [6] 40.4% | viability, T/C [7] 31.7% | viability, T/C [8] 25.1% | viability, T/C [9] 27.6% | viability, T/C [10] 23.8% | viability, T/C [11] 28.9% | viability, T/C [12] 42.2% | viability, T/C [13] 33.5% | viability, T/C [14] 24.6% | viability, T/C [15] 23.6% | viability, T/C [16] 25.8% | viability, T/C [17] 40% | viability, T/C [18] 38.1% | viability, T/C [19] 35.7% | viability, T/C [20] 20.3% | viability, T/C [21] 22.8% | viability, T/C [22] 22.9% | viability, T/C [23] 32.3% | viability, T/C [24] 41.6% | viability, T/C [25] 39.1% | viability, T/C [26] 26.8% | viability, T/C [27] 19.3% | viability, T/C [28] 25.5% | viability, T/C [29] 38.2% | viability, T/C [30] 41.1% | viability, T/C [31] 32.7% | viability, T/C [32] 22.7% | viability, T/C [33] 23.4% | viability, T/C [34] 32.3% | viability, T/C [35] 41.9% | viability, T/C [36] 39.9%
